In PubChem BioAssay (NCI) one finds GI50 and TGI data, which are given here for 24 molecules.

Assay in all cases: growth of human tumour cells (NCI), 48 h
Test [1] deals with MDA-MB-231 breast.
Test [2] relates to BT-549 breast.
The test system of test [3] is DU-145 prostate.
Test [4] has as its system NCI/ADR-RES ovarian.

Where “and” joins values, the source holds several entries; their conditions need not be identical. Identical values can stand only once.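 Where inhibition never reached the appropriate level, the endpoint shown equals the highest concentration tested. Otherwise, values were interpolated linearly from a five-concentration, 48-hour dose response in 96-well plates. GI50: concentration for 50% inhibition of growth. TGI marks complete inhibition of growth.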

In the case of `CCCCN(Cc1ccc(F)cc1)c1ccc(CO)c(Cl)c1`, the GI50 in test [1] was 14.8 µM; in test [2], 19.1 µM; in test [3], 17 µM; in test [4], 14.1 µM. In addition, the TGI came to 29 µM in test [1], 34.6 µM in test [2], 31.3 µM in test [3] and 29.3 µM in test [4].
As for `COc1cc(-c2cn(-c3ccc(Cl)cc3)c(C)c2C(=O)C(F)(F)F)cc(OC)c1OC`, the GI50 is > 100 µM in test [1], 46.8 µM in test [2], > 100 µM in test [3] and > 100 µM in test [4]. Moreover, the TGI in test [1], in test [2], in test [3] and in test [4] was > 100 µM each time.
In the case of `CO/N=C(\C)c1ccc(Nc2cc(-c3ccccc3)nc3c(O)cccc23)cc1`, the GI50 in test [1] is 15 µM; in test [2] it was 15.5 µM; in test [3], 14.1 µM; in test [4] it was 14.5 µM. The TGI in test [1] came out at 30.6 µM; in test [2] it was 32.7 µM; in test [3] it was 32 µM; in test [4] it was 30.8 µM.
With `CN(CCOc1ccc(C#N)cc1)CCOc1ccc(C#N)cc1`, the GI50 in test [1] is > 100 µM; in test [2] it was 20.5 µM; in test [3], 90 µM; in test [4], 43.8 µM. In addition, the TGI in test [1], in test [2], in test [3] and in test [4] was > 100 µM in each case.
Turning to `Fc1ccc2[nH]c3c(NCCCN4CCOCC4)ncnc3c2c1`, the GI50 in test [1] is 23.6 µM; in test [2] it was 22.5 µM; in test [3], 88 µM; in test [4], > 100 µM. The TGI in test [1] is > 100 µM; in test [2], 99.4 µM; in test [3], > 100 µM; in test [4], > 100 µM.
On to `Clc1nc(Cl)c2ncn(Cc3ccc(COc4cccc(OCc5ccc(Cn6cnc7c(Cl)nc(Cl)nc76)cc5)c4)cc3)c2n1`, for which the GI50 in test [1] is 17.4 µM; in test [2] it was 25.6 µM; in test [3] it was 18.5 µM; in test [4], 39.5 µM. For the same molecule, the TGI in test [1] is 53.2 µM; in test [2], > 100 µM; in test [3], 48.1 µM; in test [4] it was > 100 µM.
For `Cc1cc(C(C#N)c2ccc(Cl)cc2)c(Cl)cc1NC(=O)c1cc(I)cc(I)c1O` (stereo not drawn), the GI50 in test [1] is 5.48 µM and 14.2 µM; in test [2] it was 4.03 µM and 8.64 µM; in test [3] it was 14.5 µM and 15.2 µM; in test [4], 4.03 µM and 15.7 µM. The TGI in test [1] is 23.9 µM and 37.9 µM; in test [2], 11.8 µM and 23.4 µM; in test [3], 28.7 µM and 29.1 µM; in test [4] it was 28.9 µM and 54.2 µM.
With `O=C(CCl)N1c2ccccc2Sc2c1ccc1ccccc21`, the GI50 in test [1] was 2.09 µM; in test [2], 1.3 µM; in test [3], 3.32 µM; in test [4], 2.74 µM. Further, the TGI is 4.36 µM in test [1], 2.63 µM in test [2], 10.8 µM in test [3] and 6.55 µM in test [4].
Take `C[C@@H]1COCCN1c1cc(C2(S(C)(=N)=O)CC2)nc(-c2ccnc3[nH]ccc23)n1` (stereo partly drawn): the GI50 in test [1] was 3.92 µM; in test [3], 3.06 µM; in test [4] it was 23.3 µM. Moreover, the results for the TGI in test [1], in test [3] and in test [4] were 74.7 µM, > 100 µM and 88.8 µM, respectively.
In the case of `C[C@@H]1CN(CC(=O)N2CC(C)(C)c3nc(CO)c(Cc4ccc(F)cc4)cc32)[C@@H](CN2CCOC[C@H]2C)CN1`, the GI50 in test [1] is 2.02 µM; in test [2] it was 0.162 µM; in test [3], 82.1 µM; in test [4] it was 75.5 µM. The TGI was 21.8 µM in test [1], > 100 µM in test [2], > 100 µM in test [3] and > 100 µM in test [4].
For `O=C1C(Cl)=C(Nc2cccc(O)c2)C(=O)N1c1cc(Cl)c(Cl)cc1Cl`, the GI50 in test [1] was 12.7 µM; in test [3], 17.4 µM; in test [4], 24.9 µM. For the same molecule, the TGI was 29.5 µM in test [1], 39.3 µM in test [3] and 55.7 µM in test [4].
Consider `Nc1cc(N)c(N)cc1N`, for which the GI50 was 5.02 µM in test [1], 1.75 µM in test [3] and 2.24 µM in test [4]. Further, the TGI in test [1] was 29.4 µM; in test [3] it was 3.18 µM; in test [4], 7.1 µM.
Turning to `CC(=O)O[C@@H]1CC2C(C)(C)CCCC2(C)C2=C1C(=O)C(C(C)C)=CC2=O` (stereo partly drawn), the GI50 in test [1] was 0.657 µM; in test [2], 0.621 µM; in test [3], 1.09 µM; in test [4], 2.96 µM. In addition, the TGI in test [1] is 3.13 µM; in test [2], 3.05 µM; in test [3], 2.48 µM; in test [4] it was > 100 µM.
For `CCCCCCCCCCCC[n+]1ccc(CCCCCCCCC)cc1`, the GI50 was 1.37 µM in test [3] and 1.86 µM in test [4]. Further, the TGI in test [3] is 2.75 µM; in test [4] it was 3.62 µM.
As for `CC(=O)Nc1ccc2c(c1)oc(=O)c1cc(NC(C)=O)ccc12`, the GI50 was 48.5 µM in test [1], > 100 µM in test [2], > 100 µM in test [3] and > 100 µM in test [4]. The TGI in test [1], in test [2], in test [3] and in test [4] was > 100 µM throughout.
Regarding `c1cnc2[nH]cc(-c3csc(-c4cn(CCCCN5CCOCC5)c5ccccc45)n3)c2c1`, the GI50 was 1.58 µM in test [1], 2.13 µM in test [2], 2.12 µM in test [3] and 2.04 µM in test [4]. In addition, the TGI in test [1] was found to be 3.27 µM; in test [2], 5.19 µM; in test [3] it was 4.28 µM; in test [4] it was 4.71 µM.
Turning to `CN(C)c1ccc2cc(-c3ccccc3F)c(N)nc2c1`, the GI50 in test [1] was 3.71 µM; in test [2] it was 2.57 µM; in test [3] it was 3.09 µM; in test [4] it was 1.06 µM. For the same molecule, the TGI was determined as 19.6 µM in test [1], 10.6 µM in test [2], 13.2 µM in test [3] and 12.3 µM in test [4].
For the molecule `CC(=O)OCC1OC(n2ccc(=O)[nH]c2=O)C(OC(C)=O)C1OC(C)=O` (stereo not drawn), the GI50 in test [1], in test [2], in test [3] and in test [4] was > 100 µM throughout. In addition, the TGI in test [1], in test [2], in test [3] and in test [4] was > 100 µM throughout.
Turning to `Clc1nc(Cl)c2c(ncn2C/C=C\Cn2cnc3c(Cl)nc(Cl)nc32)n1`, the GI50 was 1.88 µM in test [1], 1.61 µM in test [2], 1.53 µM in test [3] and 2.69 µM in test [4]. Moreover, the TGI in test [1] amounted to 3.65 µM; in test [2], 2.97 µM; in test [3], 2.86 µM; in test [4], 11.1 µM.
Take `C=C1CC[C@@H]2[C@](C)(COC(C)=O)[C@H](OC(C)=O)CC[C@@]2(C)[C@@H]1CC(Nc1ccc(S(=O)(=O)Nc2nccc(C)n2)cc1)C1=CCOC1=O` (stereo partly drawn): the GI50 is 3.62 µM in test [1], 2.3 µM in test [2], 3.36 µM in test [3] and 2.94 µM in test [4]. Further, the TGI in test [1] worked out at 10.2 µM; in test [2] it was 5.61 µM; in test [3], 11.8 µM; in test [4], 13.5 µM.
For the molecule `C=C1C(=O)O[C@H]2[C@H]1CC/C(COC(=O)N1CCC[C@H]1C(=O)Nc1ccc(OC)c(C(N)=O)c1O)=C\CC[C@@]1(C)O[C@@H]21`, the GI50 in test [1] was 2.68 µM; in test [2], 1.62 µM; in test [3] it was 3.95 µM; in test [4] it was 61 µM. The TGI was 10.1 µM in test [1], 5.12 µM in test [2], 14.5 µM in test [3] and > 100 µM in test [4].
For `COC(=O)CNC(=O)[C@@H](OC)[C@@H]1Cc2cc3cc(OC4CC(OC5CC(O)C(O)C(C)O5)C(O)C(C)O4)c(C)c(O)c3c(O)c2C(=O)[C@H]1OC1CC(OC2CC(OC3CC(C)(O)C(O)C(C)O3)C(O)C(C)O2)C(O)C(C)O1` (stereo partly drawn), the GI50 in test [1] is 0.267 µM; in test [2], 0.114 µM; in test [3], 0.208 µM; in test [4], 48.5 µM. Besides, the TGI in test [1] was > 50 µM; in test [2] it was 1.1 µM; in test [3], > 50 µM; in test [4], > 50 µM.
For the molecule `Cc1nc2sc(C(=O)Nc3ccccc3)c(N)c2cc1C(=O)/C=C/c1ccccc1`, the GI50 is 3.41 µM in test [1], 1.71 µM in test [2] and 1.81 µM in test [3]. Further, the figures for the TGI in test [1], in test [2] and in test [3] were 11.3 µM, 3.63 µM and 3.6 µM, respectively.
Consider `CC(=O)[O-].CC(=O)[O-].[NH2-].[Pt+2].c1ccc2cnccc2c1`, for which the GI50 in test [1] was 27.3 µM; in test [3], 12.2 µM; in test [4] it was 64.4 µM. In addition, the TGI in test [1] was > 100 µM; in test [3], 64.2 µM; in test [4], > 100 µM.
